The values that follow come from US11623929B2, “Spirocyclic compounds” (C4 Therapeutics, Inc., priority 2018, dated 2023).

The assay addresses h-Cereblon_DDB1 (hCereblon(M1-L442)_hDDB1(M1-H1140)) (Homo sapiens (Human), UniProt Q96SW2). The assay is described as follows: Fluorescence direct binding (tryptophan fluorescence titration). The following applies: 20° C., excitation 280 nm, emission 340 nm, assay buffer 50 mM Hepes 7.4 200 mM NaCl, protein 5.0 E−8 M; read-out: Fluorescence h-Cereblon_DDB1 Mean Kd_EQ. On the procedure: Fluorescence Direct Binding Protocol
Determination of the affinities of compounds to protein containing one or more tryptophan is measurable by monitoring the fluorescence emission in direct mode. The measurements depending on the protein available amounts are performed either manually in a cuvette on ISS-PC1 photon counting spectrofluorometer or automatically in well plates on a fluorescence plate reader device. Fluorescence titrations are performed at 20° C. in the chosen binding assay buffer by using a defined constant protein concentration against ligand concentration variations. Small aliquots of known ligand concentration solubilized in DMSO were added and the fluorescence, excited at 280 nm, was recorded at 340 nm. The fluorescence intensity was corrected for protein dilution and for the filter effect (Birdsall, B., et al. (1983). Anal. Biochem. 132, 353-361). The corrected fluorescence intensity was plotted against the ligand concentration and fitted using a four-parameter sigmoidal function, from which the equilibrium dissociation constant Kd was computed using the law of mass action assuming a 1:1 protein-ligand complex (Eftink, Methods Enzymol. 1997; 278:221-57).
The Fluorescence Direct Binding Protocol Process includes:
• 1) Optimization of measurement parameters to minimize protein consumption and to minimize the dilution effect and the DMSO content • 2) Titration measurements of the protein against ligand by at least 12 titration steps to obtain a good s-curve fit • 3) Repeat the same titration measurements with the ligand alone to enable correction • 4) Check the stability of the protein once by titration against DMSO alone • 5) Determination of the molar extinction coefficients of the ligand at 280 and 340 nm with help of an UV-spectrophotometer • 6) Use Excel template for the correction of the measured raw data • 7) Use GraphPad Prism software for the quadratic binding fit and the KD evaluation.

Chain of h-Cereblon_DDB1 (hCereblon(M1-L442)_hDDB1(M1-H1140)) (Q96SW2 whole entry): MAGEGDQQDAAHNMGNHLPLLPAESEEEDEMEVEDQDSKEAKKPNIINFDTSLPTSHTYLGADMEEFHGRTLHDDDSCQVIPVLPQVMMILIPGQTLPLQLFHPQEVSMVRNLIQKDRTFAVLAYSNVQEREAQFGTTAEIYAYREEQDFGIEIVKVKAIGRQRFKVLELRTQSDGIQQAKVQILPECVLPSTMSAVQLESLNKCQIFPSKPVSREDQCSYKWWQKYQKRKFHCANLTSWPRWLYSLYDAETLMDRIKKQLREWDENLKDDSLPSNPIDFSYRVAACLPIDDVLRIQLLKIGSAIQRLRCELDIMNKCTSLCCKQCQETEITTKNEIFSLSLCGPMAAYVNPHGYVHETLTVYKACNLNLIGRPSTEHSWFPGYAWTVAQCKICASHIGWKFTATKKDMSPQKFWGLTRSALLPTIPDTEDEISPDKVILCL
Chain of h-Cereblon_DDB1 (hCereblon(M1-L442)_hDDB1(M1-H1140)) (Q16531 whole entry partner): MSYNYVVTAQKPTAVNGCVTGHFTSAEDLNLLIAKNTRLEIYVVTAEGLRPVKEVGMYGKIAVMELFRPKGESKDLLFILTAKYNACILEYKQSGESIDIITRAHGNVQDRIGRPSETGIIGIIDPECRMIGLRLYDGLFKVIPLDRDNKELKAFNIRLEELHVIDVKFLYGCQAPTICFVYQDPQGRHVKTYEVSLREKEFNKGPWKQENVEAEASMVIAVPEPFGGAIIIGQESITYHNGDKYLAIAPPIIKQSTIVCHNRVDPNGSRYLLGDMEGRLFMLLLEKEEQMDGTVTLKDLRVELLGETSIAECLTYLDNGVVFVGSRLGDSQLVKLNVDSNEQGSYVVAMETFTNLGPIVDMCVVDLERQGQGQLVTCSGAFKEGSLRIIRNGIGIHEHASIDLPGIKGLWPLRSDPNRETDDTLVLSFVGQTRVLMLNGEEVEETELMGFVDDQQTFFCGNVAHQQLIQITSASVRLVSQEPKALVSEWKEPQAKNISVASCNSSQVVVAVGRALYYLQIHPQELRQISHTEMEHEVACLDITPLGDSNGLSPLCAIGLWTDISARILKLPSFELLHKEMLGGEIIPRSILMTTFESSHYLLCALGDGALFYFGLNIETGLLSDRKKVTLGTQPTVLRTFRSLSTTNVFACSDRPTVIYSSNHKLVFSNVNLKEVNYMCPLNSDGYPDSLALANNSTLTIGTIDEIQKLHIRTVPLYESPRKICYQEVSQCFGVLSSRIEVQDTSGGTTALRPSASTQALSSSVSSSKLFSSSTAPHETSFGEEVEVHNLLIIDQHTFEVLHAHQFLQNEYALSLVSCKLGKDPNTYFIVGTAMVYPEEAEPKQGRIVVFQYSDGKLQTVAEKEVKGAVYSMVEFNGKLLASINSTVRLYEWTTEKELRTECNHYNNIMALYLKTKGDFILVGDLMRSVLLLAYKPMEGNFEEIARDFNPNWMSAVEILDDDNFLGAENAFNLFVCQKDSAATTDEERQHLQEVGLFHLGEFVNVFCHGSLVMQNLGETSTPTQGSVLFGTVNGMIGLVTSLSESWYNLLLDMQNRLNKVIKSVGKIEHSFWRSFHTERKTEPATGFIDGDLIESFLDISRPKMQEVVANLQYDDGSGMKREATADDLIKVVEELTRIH

For `O=C1NC(=O)C2(CCN(C(=O)c3ccccc3)C2)N1` (stereo not drawn) [Example 1, 7-Benzoyl-1,3,7-triazaspiro[4.4]nonane-2,4-dione], the Kd turned out to be 0.004 µM.
Under `O=C1NC(=O)C2(CCN(C(=O)c3ccc4scnc4c3)C2)N1` (stereo not drawn) [Example 9, 7-(Benzo[d]thiazole-5-carbonyl)-1,3,7-triazaspiro[4.4]nonane-2,4-dione] stands 0.032 µM.
For `O=C1CC2(CCN(C(=O)c3cnn4ccccc34)C2)C(=O)N1` (stereo not drawn) [Example 12, 7-(Pyrazolo[1,5-a]pyridine-3-carbonyl)-2,7-diazaspiro[4.4]nonane-1,3-dione], the Kd came out at 0.006 µM.
The same measure for `O=C1NC(=O)C2(CCN(c3nc4ccccc4s3)C2)N1` (stereo not drawn) [Example 3, 7-(Benzo[d]thiazol-2-yl)-1,3,7-triazaspiro[4.4]nonane-2,4-dione]: 0.031 µM.
For `O=C1NC(=O)C2(CCN(C(=O)[C@H]3CCCc4ccccc43)C2)N1` (stereo partly drawn) [Example 2, 7-((S)-1,2,3,4-Tetrahydronaphthalene-1-carbonyl)-1,3,7-triazaspiro[4.4]nonane-2,4-dione], the Kd was found to be 0.003 µM.
Consider `O=C1CC2(CCN(C(=O)c3ccccc3)C2)C(=O)N1` (stereo not drawn) [Example 13, 7-Benzoyl-2,7-diazaspiro[4.4]nonane-1,3-dione], for which the Kd is 0.015 µM.
For `COC(=O)c1ccc(N2CCC3(C2)NC(=O)NC3=O)nc1` (stereo not drawn) [Example 5, Methyl 6-(2,4-dioxo-1,3,7-triazaspiro[4.4]nonan-7-yl)nicotinate], the Kd was determined as 0.002 µM.
`O=C1NC(=O)C2(CCN(C(=O)c3ccc4scnc4c3)C2)N1` (stereo not drawn) [Example 14, 7-(Benzo[d]thiazole-5-carbonyl)-1,3,7-triazaspiro[4.4]nonane-2,4-dione]: the Kd amounted to 0.026 µM.
For `O=C1NC(=O)C2(CCN(c3nc4ncccc4s3)C2)N1` (stereo not drawn) [Example 8, 7-(Thiazolo[4,5-b]pyridin-2-yl)-1,3,7-triazaspiro[4.4]nonane-2,4-dione], the Kd amounted to 0.007 µM.
Turning to `O=C1NC(=O)C2(CCN(C(=O)c3ccc4scnc4c3)C2)N1` (stereo not drawn) [Example 15, 7-(Benzo[d]thiazole-5-carbonyl)-1,3,7-triazaspiro[4.4]nonane-2,4-dione], the Kd amounted to 0.023 µM.
For `O=C1CC2(CCN(c3nc4ccccc4s3)C2)C(=O)N1` (stereo not drawn) [Example 11, 7-(Benzo[d]thiazol-2-yl)-2,7-diazaspiro[4.4]nonane-1,3-dione], the Kd came to 0.018 µM.
Consider `O=C1NC(=O)C2(CCN(C(=O)c3cnn4ccccc34)C2)N1` (stereo not drawn) [Example 4, 7-(Pyrazolo[1,5-a]pyridine-3-carbonyl)-1,3,7-triazaspiro[4.4]nonane-2,4-dione], for which the Kd turned out to be 0.037 µM.
For `CC(=O)Nc1cccc(C(=O)N2CCC3(C2)NC(=O)NC3=O)c1` (stereo not drawn) [Example 6, N-(3-(2,4-Dioxo-1,3,7-triazaspiro[4.4]nonane-7-carbonyl)phenyl)acetamide], the Kd turned out to be 0.01 µM.
The same measure for `CC(=O)Nc1ccc(C(=O)N2CCC3(C2)NC(=O)NC3=O)cc1` (stereo not drawn) [Example 7, N-(4-(2,4-Dioxo-1,3,7-triazaspiro[4.4]nonane-7-carbonyl)phenyl)acetamide]: 0.161 µM; for `COC(=O)c1ccc(N2CCC3(CC(=O)NC3=O)C2)nc1` (stereo not drawn) [Example 10, Methyl 6-(6,8-dioxo-2,7-diazaspiro[4.4]nonan-2-yl)nicotinate]: 0.01 µM.
